Laboratory results reported in the NIST ThermoML archive (doi:10.1021/acs.jced.7b00946).

Assay: molar heat capacity at constant pressure
Conditions: Gas, Flow calorimetry

C=C(F)C(F)(F)F [2,3,3,3-tetrafluoro-1-propene]
Conditions | molar heat capacity at constant pressure [J/K/mol]
373.15 K, 3498 kPa | 410.55
373.15 K, 4114 kPa | 394.58
373.15 K, 4160 kPa | 387.74
373.15 K, 4441 kPa | 288.53
373.15 K, 4642 kPa | 273.7
373.15 K, 4921 kPa | 245.19
373.15 K, 5047 kPa | 238.35
373.15 K, 5955 kPa | 210.98
373.15 K, 6023 kPa | 210.98
373.15 K, 8020 kPa | 187.03
373.15 K, 8021 kPa | 188.17
373.15 K, 8024 kPa | 188.17
393.15 K, 4039 kPa | 218.96
393.15 K, 4040 kPa | 217.82
393.15 K, 4943 kPa | 345.55
393.15 K, 4944 kPa | 339.84
393.15 K, 5417 kPa | 322.74
393.15 K, 5958 kPa | 278.26
393.15 K, 6022 kPa | 275.98
393.15 K, 7949 kPa | 205.27
393.15 K, 8043 kPa | 205.27
393.15 K, 10032 kPa | 188.17
413.15 K, 4015 kPa | 173.34
413.15 K, 4989 kPa | 207.56
413.15 K, 5045 kPa | 208.7
413.15 K, 6037 kPa | 244.05
413.15 K, 6963 kPa | 245.19
413.15 K, 6965 kPa | 241.77
413.15 K, 8042 kPa | 228.08
413.15 K, 8043 kPa | 228.08
413.15 K, 10030 kPa | 201.85
